Laboratory results taken from US20070077238A1, “Production of organic and inorganic selenium compounds by lactic acid bacteria” (priority 2005, published 2007).

Test system: lactic acid bacteria strains
Assay: Growth of lactic acid bacteria strains on media containing selenate or selenite
Format: cell-based, lactic acid bacteria from gastrointestinal tracts of chicken
Conditions: 250 ppm in media
Method: Putative strains of LAB were grown on MRS agar plates containing various concentrations of selenate and selenite.

Which results are given for `O=[Se](O)O` [Selenite, sodium selenite]?
Number of lactic acid bacteria strains grown (percentage of bacterial cells that grew) (incubation time 12 h): 62.9 percentage; Number of lactic acid bacteria strains grown (percentage of bacterial cells that grew) (incubation time 24 h): 2.1 percentage; Number of lactic acid bacteria strains grown (percentage of bacterial cells that grew) (incubation time 48 h): 24.7 percentage; Number of lactic acid bacteria strains grown (percentage of bacterial cells that grew) (incubation time >48 h): 10.3 percentage

Which “Number of lactic acid bacteria strains grown (percentage of bacterial cells that grew)” value (incubation time 12 h) does the source give for `O=[Se](=O)([O-])[O-].[Na+].[Na+]` [Selenate, sodium selenate] here?
The value was 75.3 percentage.

And the “Number of lactic acid bacteria strains grown (percentage of bacterial cells that grew)” value (incubation time 24 h)?
Its value is 14.4 percentage.

What about the “Number of lactic acid bacteria strains grown (percentage of bacterial cells that grew)” value (incubation time 48 h) of the same compound?
Its value is 10.3 percentage.

What about the “Number of lactic acid bacteria strains grown (percentage of bacterial cells that grew)” value (incubation time >48 h) of the same compound?
Its value is 0 percentage.
